Measured values published in the NIST ThermoML archive (doi:10.1021/je900414p).

Test: xn = mol fraction of the nth substance listed
Details: Liquid

CCOS(=O)(=O)[O-].CCn1cc[n+](C)c1 [1-ethyl-3-methylimidazolium ethyl sulfate] + CCO
mass density [kg/m3]
Details | 100 kPa | 2500 kPa | 5000 kPa | 10000 kPa | 15000 kPa | 20000 kPa | 25000 kPa | 30000 kPa | 35000 kPa
313.15 K, x1 = 0.05056 | 843.63 | 845.7 | 847.81 | 851.86 | 855.73 | 859.44 | 862.99 | 866.42 | 869.72
313.15 K, x1 = 0.103 | 902 | 903.78 | 905.71 | 909.43 | 912.99 | 916.4 | 919.72 | 922.91 | 926.01
313.15 K, x1 = 0.1247 | 923.22 | 925.01 | 926.88 | 930.46 | 933.91 | 937.23 | 940.45 | 943.56 | 946.56
313.15 K, x1 = 0.2126 | 992.44 | 994.08 | 995.74 | 998.97 | 1002.07 | 1005.09 | 1008.03 | 1010.88 | 1013.65
313.15 K, x1 = 0.2919 | 1041.3 | 1042.32 | 1043.83 | 1046.78 | 1049.64 | 1052.42 | 1055.15 | 1057.79 | 1060.38
313.15 K, x1 = 0.3185 | 1054.58 | 1055.91 | 1057.39 | 1060.28 | 1063.09 | 1065.82 | 1068.49 | 1071.08 | 1073.63
313.15 K, x1 = 0.4198 | 1098.28 | 1099.64 | 1101.01 | 1103.69 | 1106.3 | 1108.84 | 1111.34 | 1113.78 | 1116.18
313.15 K, x1 = 0.4847 | 1120.82 | 1122.08 | 1123.39 | 1125.96 | 1128.48 | 1130.94 | 1133.35 | 1135.7 | 1138.01
313.15 K, x1 = 0.5713 | 1146.49 | 1147.66 | 1148.92 | 1151.37 | 1153.79 | 1156.13 | 1158.44 | 1160.72 | 1162.93
313.15 K, x1 = 0.6827 | 1173.47 | 1174.61 | 1175.83 | 1178.16 | 1180.44 | 1182.7 | 1184.92 | 1187.08 | 1189.22
313.15 K, x1 = 0.7919 | 1195.34 | 1196.17 | 1197.31 | 1199.56 | 1201.76 | 1203.92 | 1206.06 | 1208.15 | 1210.22
313.15 K, x1 = 0.9317 | 1217.11 | 1218.16 | 1219.26 | 1221.43 | 1223.56 | 1225.65 | 1227.71 | 1229.75 | 1231.75
323.15 K, x1 = 0.05056 | 835.32 | 837.47 | 839.71 | 843.97 | 848.02 | 851.88 | 855.6 | 859.16 | 862.58
323.15 K, x1 = 0.103 | 893.98 | 895.85 | 897.87 | 901.75 | 905.47 | 909.03 | 912.49 | 915.79 | 919.01
323.15 K, x1 = 0.1247 | 915.32 | 917.14 | 919.07 | 922.82 | 926.4 | 929.85 | 933.19 | 936.42 | 939.53
323.15 K, x1 = 0.2126 | 984.81 | 986.48 | 988.21 | 991.57 | 994.8 | 997.91 | 1000.95 | 1003.91 | 1006.77
323.15 K, x1 = 0.2919 | 1034.05 | 1035.04 | 1036.64 | 1039.7 | 1042.66 | 1045.53 | 1048.35 | 1051.07 | 1053.73
323.15 K, x1 = 0.3185 | 1047.28 | 1048.63 | 1050.16 | 1053.16 | 1056.05 | 1058.87 | 1061.63 | 1064.29 | 1066.91
323.15 K, x1 = 0.4198 | 1091.13 | 1092.5 | 1093.93 | 1096.7 | 1099.39 | 1102.02 | 1104.58 | 1107.1 | 1109.55
323.15 K, x1 = 0.4847 | 1113.75 | 1115 | 1116.36 | 1119.02 | 1121.59 | 1124.12 | 1126.59 | 1129.01 | 1131.39
323.15 K, x1 = 0.5713 | 1139.53 | 1140.71 | 1142.02 | 1144.55 | 1147.01 | 1149.42 | 1151.81 | 1154.14 | 1156.41
323.15 K, x1 = 0.6827 | 1166.57 | 1167.74 | 1168.97 | 1171.37 | 1173.72 | 1176.03 | 1178.31 | 1180.52 | 1182.71
323.15 K, x1 = 0.7919 | 1188.51 | 1189.35 | 1190.5 | 1192.81 | 1195.06 | 1197.29 | 1199.48 | 1201.62 | 1203.73
323.15 K, x1 = 0.9317 | 1210.34 | 1211.42 | 1212.55 | 1214.78 | 1216.96 | 1219.11 | 1221.21 | 1223.29 | 1225.34
333.15 K, x1 = 0.05056 | 826.91 | 829.15 | 831.49 | 835.97 | 840.22 | 844.27 | 848.14 | 851.85 | 855.41
333.15 K, x1 = 0.103 | 885.77 | 887.83 | 889.93 | 893.99 | 897.89 | 901.61 | 905.17 | 908.61 | 911.93
333.15 K, x1 = 0.1247 | 907.28 | 909.17 | 911.19 | 915.1 | 918.84 | 922.44 | 925.91 | 929.24 | 932.47
333.15 K, x1 = 0.2126 | 977.1 | 978.86 | 980.64 | 984.14 | 987.5 | 990.73 | 993.88 | 996.92 | 999.88
333.15 K, x1 = 0.2919 | 1026.55 | 1027.68 | 1029.31 | 1032.48 | 1035.56 | 1038.53 | 1041.42 | 1044.25 | 1046.98
333.15 K, x1 = 0.3185 | 1039.85 | 1041.25 | 1042.83 | 1045.92 | 1048.93 | 1051.83 | 1054.66 | 1057.43 | 1060.13
333.15 K, x1 = 0.4198 | 1083.92 | 1085.39 | 1086.84 | 1089.7 | 1092.49 | 1095.2 | 1097.84 | 1100.42 | 1102.94
333.15 K, x1 = 0.4847 | 1106.62 | 1107.91 | 1109.29 | 1112.04 | 1114.72 | 1117.29 | 1119.85 | 1122.34 | 1124.77
333.15 K, x1 = 0.5713 | 1132.56 | 1133.8 | 1135.1 | 1137.7 | 1140.25 | 1142.73 | 1145.17 | 1147.56 | 1149.9
333.15 K, x1 = 0.6827 | 1159.67 | 1160.86 | 1162.12 | 1164.6 | 1167.03 | 1169.4 | 1171.73 | 1174 | 1176.25
333.15 K, x1 = 0.7919 | 1181.63 | 1182.51 | 1183.7 | 1186.07 | 1188.4 | 1190.67 | 1192.91 | 1195.12 | 1197.28
333.15 K, x1 = 0.9317 | 1203.54 | 1204.68 | 1205.83 | 1208.1 | 1210.35 | 1212.54 | 1214.7 | 1216.82 | 1218.92
343.15 K, x1 = 0.05056 | 818.25 | 820.66 | 823.11 | 827.83 | 832.27 | 836.51 | 840.54 | 844.41 | 848.12
343.15 K, x1 = 0.103 | 877.67 | 879.77 | 881.99 | 886.23 | 890.27 | 894.14 | 897.85 | 901.43 | 904.85
343.15 K, x1 = 0.1247 | 899.5 | 901.47 | 903.69 | 907.82 | 911.68 | 915.39 | 918.99 | 922.46 | 925.77
343.15 K, x1 = 0.2126 | 969.67 | 971.48 | 973.32 | 976.91 | 980.38 | 983.71 | 986.96 | 990.09 | 993.12
343.15 K, x1 = 0.2919 | 1019.38 | 1020.57 | 1022.23 | 1025.5 | 1028.64 | 1031.72 | 1034.69 | 1036.01 | 1040.41
343.15 K, x1 = 0.3185 | 1032.6 | 1034.03 | 1035.67 | 1038.87 | 1041.94 | 1044.93 | 1047.86 | 1050.69 | 1053.46
343.15 K, x1 = 0.4198 | 1076.98 | 1078.52 | 1080 | 1082.95 | 1085.8 | 1088.59 | 1091.31 | 1093.96 | 1096.54
343.15 K, x1 = 0.4847 | 1099.67 | 1100.97 | 1102.41 | 1105.21 | 1107.95 | 1110.61 | 1113.23 | 1115.78 | 1118.28
343.15 K, x1 = 0.5713 | 1125.7 | 1126.98 | 1128.32 | 1131.01 | 1133.6 | 1136.16 | 1138.67 | 1141.1 | 1143.48
343.15 K, x1 = 0.6827 | 1152.86 | 1154.1 | 1155.37 | 1157.89 | 1160.38 | 1162.8 | 1165.19 | 1167.53 | 1169.82
343.15 K, x1 = 0.7919 | 1175 | 1175.81 | 1177.05 | 1179.48 | 1181.84 | 1184.18 | 1186.47 | 1188.72 | 1190.93
343.15 K, x1 = 0.9317 | 1196.87 | 1198.02 | 1199.21 | 1201.52 | 1203.82 | 1206.06 | 1208.26 | 1210.44 | 1212.58
